Experimental findings from patent US6787535B2, “Indole derivatives with 5HT6 receptor affinity” (Syntex (U.S.A.) LLC, priority 2001, dated 2004) are described below.

The melting point is the temperature of the solid-liquid transition.

Counter-ions that a name gives are not always drawn.

Take `O=S(=O)(c1ccc(F)cc1)c1c[nH]c2c(N3CCNCC3)cccc12` [compound 104, 3-(4-fluoro-benzenesulfonyl)-7-piperazin-1-yl-1H-indole]: the melting point fell in the range of 247 to 249 °C.

In turn, `Cn1cc(S(=O)(=O)c2ccc(F)cc2)c2cc(N3CCNCC3)ccc21` [compound 413, 3-(4-fluoro-benzenesulfonyl)-1-methyl-5-piperazin-1-yl-1H-indole] showed a melting point of 195 to 207 °C. Under `O=S(=O)(c1nc2ccccc2s1)c1c[nH]c2c(N3CCNCC3)cccc12` [compound 114, 2-(7-piperazin-1-yl-1H-indole-3-sulfonyl)-benzothiazole] stands 295 °C; under `CN1CCN(c2cccc3c(S(=O)(=O)c4cccc(Cl)c4)c[nH]c23)CC1` [compound 505, 3-(3-chloro-benzenesulfonyl)-7-(4-methyl-piperazin-1-yl)-1H-indole], 163 to 171 °C; under `CCCN1CCN(c2cccc3c(S(=O)(=O)c4ccccc4)c[nH]c23)CC1` [compound 512, 3-benzenesulfonyl-7-(4-propyl-piperazin-1-yl)-1H-indole], 290 to 295 °C. `O=S(=O)(c1ccccc1)c1c[nH]c2c(N3CCNCC3)cccc12` (as salt: hydrochloride) gave a melting point of 278 to 280 °C. Under `O=S(=O)(c1ccc(C(F)(F)F)cc1)c1c[nH]c2ccc(N3CCNCC3)cc12` [compound 203, 5-piperazin-1-yl-3-(4-trifluoromethyl-benzenesulfonyl)-1H-indole] stands 274.9 to 280.9 °C; under `O=S(=O)(c1ccccc1Cl)c1c[nH]c2ccc(N3CCNCC3)cc12` [compound 206, 3-(2-chloro-benzenesulfonyl)-5-piperazin-1-yl-1H-indole], > 300 °C; under `Cn1cc(S(=O)(=O)c2ccccn2)c2cccc(N3CCNCC3)c21` [compound 402, 1-methyl-7-piperazin-1-yl-3-(pyridine-2-sulfonyl)-1H-indole], 297 to 298 °C. Regarding `O=S(=O)(c1ccc(Cl)cc1)c1c[nH]c2ccc(N3CCNCC3)cc12` [compound 204, 3-(4-chloro-benzenesulfonyl)-5-piperazin-1-yl-1H-indole], the melting point was in the range of 282 to 286.4 °C.

Take `Cc1[nH]c2c(N3CCNCC3)cccc2c1S(=O)(=O)c1ccc(Cl)cc1` [compound 602, 3-(4-chlorobenzenesulfonyl)-2-methyl-7-piperazin-1-yl-1H-indole]: the melting point lay in the range of 118 to 120 °C. In turn, `CN1CCC(c2cccc3c(S(=O)(=O)c4ccc(F)cc4)c[nH]c23)CC1` [compound 510, 3-(4-fluoro-benzenesulfonyl)-7-(1-methyl-piperidin-4-yl)-1H-indole] came in with a melting point of 178 to 182 °C. Turning to `Cn1cc(S(=O)(=O)c2ccc(F)cc2)c2cccc(N3CCNCC3)c21` [compound 405, 3-(4-fluoro-benzenesulfonyl)-1-methyl-7-piperazin-1-yl-1H-indole], the melting point is 300 °C. The compound `Cc1[nH]c2c(N3CCNCC3)cccc2c1S(=O)(=O)c1ccccc1` [compound 601, 3-benzenesulfonyl-2-methyl-7-piperazin-1-yl-1H-indole] returned a melting point of 188 to 190 °C. `Cn1cc(S(=O)(=O)c2cccc(Cl)c2)c2cccc(N3CCNCC3)c21` [compound 408, 3-(3-chloro-benzenesulfonyl)-1-methyl-7-piperazin-1-yl-1H-indole]: the melting point was determined as 300 °C. Turning to `COc1ccc(S(=O)(=O)c2c(C)[nH]c3c(N4CCNCC4)cccc23)cc1` [compound 604, 3-(4-methoxybenzenesulfonyl)-2-methyl-7-piperazin-1-yl-1H-indole], the melting point is 182 to 184 °C. Consider `O=S(=O)(c1ccc(Cl)c(Cl)c1)c1c[nH]c2c(N3CCNCC3)cccc12` [compound 103, 3-(3,4-dichloro-benzenesulfonyl)-7-piperazin-1-yl-1H-indole], for which the melting point was found to be 290 °C. `Clc1cccc(Sc2c[nH]c3ccc(N4CCNCC4)cc23)c1Cl` gave a melting point of 255.1 to 255.5 °C.

Compound `O=S(=O)(c1ccncc1)c1c[nH]c2c(N3CCNCC3)cccc12` returned a melting point of 207 to 208 °C. Under `O=S(=O)(c1ccccc1)c1c[nH]c2c(N3CCN(CC4CC4)CC3)cccc12` [compound 511, 3-benzenesulfonyl-7-(4-cyclopropylmethyl-piperazin-1-yl)-1H-indole] stands 280 to 282 °C; under `CN1CCN(c2cccc3c(S(=O)(=O)c4cc(Cl)cc(Cl)c4)c[nH]c23)CC1` [compound 507, 3-(3,5-dichloro-benzenesulfonyl)-7-(4-methyl-piperazin-1-yl)-1H-indole], 237.1 to 241.5 °C; under `CN1CCN(c2cccc3c(S(=O)(=O)c4ccccc4Cl)c[nH]c23)CC1` [compound 504, 3-(2-chloro-benzenesulfonyl)-7-(4-methyl-piperazin-1-yl)-1H-indole], 168.5 to 175.9 °C.

Regarding `c1ccc(Sc2c[nH]c3ccc(N4CCNCC4)cc23)cc1`, the melting point lay within 246 to 247 °C. In the case of `O=S(=O)(c1cccc(Cl)c1)c1c[nH]c2c(C3CCNCC3)cccc12` [compound 208, 3-(3-Chloro-benzenesulfonyl)-7-piperidin-4-yl-1H-indole], the melting point was in the range of 272.3 to 272.9 °C. With `O=S(=O)(c1cc(Cl)cc(Cl)c1)c1c[nH]c2ccc(N3CCNCC3)cc12` [compound 205, 3-(3,5-dichloro-benzenesulfonyl)-5-piperazin-1-yl-1H-indole] the figure was > 300 °C; with `CN1CCN(c2cccc3c(S(=O)(=O)c4ccccc4)c[nH]c23)CC1` (as salt: hydrochloride) [compound 501, 3-benzenesulfonyl-7-(4-methyl-piperazin-1-yl)-1H-indole], 160 to 162 °C.
